Measurements as given in patent US12104173B2, “Method for differentiation of human pluripotent stem cell lines in suspension culture” (AGENCY FOR SCIENCE, TECHNOLOGY AND RESEARCH, priority 2018, dated 2024).

Assays:
[1] = system: X13 induced pluripotent stem cells (iPSCs) on microcarriers; experiment: screening of Wnt pathway activators: mesoderm induction (T-bra, KDR+PDGFRα−) by flow cytometry; format: cell-based, human; details: compared to other Wnt pathway modulators
Experimental: (§1) (A) is a column graph showing two different concentrations of seven Wnt pathway activators (BIO, SB-216763, CHIR98014, Inhibitor VIII, Kenpaullone, DRF053 dihydrochloride and Wnt3a). which were selected from literature reviews and screened with CHIR99021 as a control for the disclosed hematopoietic differentiation protocol. The viability of the X13 induced pluripotent stem cells (iPSCs) on microcarriers were tabulated accordingly 24 hours post treatment of the various Wnt pathway modulators. […] (B) is a column graph showing the percentage of mesogerm induction.
Human induced pluripotent stem cell-microcarrier (hiPSC-MC) aggregates (1×10^6 cells/ml, or 1e6 cells/nil) were transferred to mesoderm induction medium (cytokines all from Stemcell Technologies) plus Stemline II Hematopoietic Stem Cell Expansion medium (SL2) in either 6-well ultra-low attachment plates (5 ml) under continuous agitation at 75 rpm or 125 ml spinner flasks (50 ml) under continuous agitation at 36 rpm. Daily medium changes as indicated: Day 0: SL2+30 ng/ml BMP4+50 ng/ml VEGF-165+40 ng/ml Activin A+12-15 μM CHIR-99021; Day 1: SL2+30 ng/ml BMP4+50 ng/ml VEGF-165+40 ng/ml Activin A; Day 2: SL2+20 ng/ml BMP4+30 ng/ml VEGF165+5 ng/ml Activin A+10 ng/ml bFGF+20 ng/ml SCF+0.4 ng/ml β-estradiol. Samples were collected on day 1 and day 3 for flow cytometry analysis of T-brachyury (T-Bra) and KDR/PDGFRα cells, respectively.

[2] = system: X13 induced pluripotent stem cells (iPSCs) on microcarriers; details: 24 hours post treatment; 10 μM
Experimental: as §1

[3] = system: hES-3-MC aggregates (agitation culture); experiment: DoE: hematopoietic precursor generation, 14 days in Blast growth medium (BGM); format: cell-based, human; details: BMP4 10 to 50 ng/ml, Activin A 0-80 ng/ml, CHIR exposure 0 to 24 hours, 2 weeks in BGM
Experimental: (§2) Different doses (and/or duration of exposure) of cytokines and small-molecules with known roles in inducing mesoderm and hematopoietic differentiation were evaluated using the MODDE® software for differentiation of hES-3 MC aggregate cultures initially derived under agitation. The DoE was designed to investigate effects of BMP4 (10-50 ng/ml), Activin A (0 to 80 ng/ml), CHIR (0-15 μM at 0 to 48 hours after start of mesoderm induction). These variables generated 29 culture conditions (FIG. 2A), which were tested for their effects on percent of KDR+ cells (4 days post initiation of differentiation) and the following stage of hematopoietic precursors generation (2 weeks of culture in Blast growth medium (BGM)).
(§3) Design of experiments (DoE) using a resolution IV Fractional Factorial Design was performed using the MODDE software (Sartorius Stedim Biotech, Germany) to evaluate initial BMP4, Activin A and CHIR-99021, doses and duration of exposure for their effects on the following response factors: induction of KDR+ cells 4 days post mesoderm induction or total hematopoietic precursors generated 2 weeks post differentiation. […] Computed model with R2 scores>0.5 indicate a model of significant fit, Q2 scores>0.1 indicate a significant model while Q2>0.5 indicate a good model for estimation of future prediction precision, model validity score of <0.25 indicate statistically significant model problems and reproducibility (the variation of the replicates compared to overall variability) should be greater than 0.5.
Human pluripotent stem cell-microcarrier (HPSC-MC) aggregates (derived from 7 day continuous agitation conditions), equivalent to 5×10^5 cells, were seeded and differentiated in 24-well ultra-low attachment plates with Stemline II medium using multi-factorial conditions as detailed in FIG. 2A and FIG. 6A, as well as in Table 3. […]
Following 4 days of differentiation, single cells were derived from microcarrier aggregates by treatment with TrypLE. […] Fold-expansion was calculated as total number of cells derived after 2 weeks as compared to initial seeding of 1×10^5 cells.

[4] = system: O-neg hiPSC line (D5) expanded in agitated microcarrier cultures; experiment: DoE multifactorial analysis of KDR+ cells, O-neg hiPSC; format: cell-based, human; details: CHIR exposure for 24 hours, 4 days post differentiation
Description: (B) Plot of KDR levels (%) for respective conditions tested (day 4 post differentiation). Conditions 27, 28 and 29 are triplicates of the same condition tested. […] Act=Activin A; CHI=CHIR-99021 for 24 hr, CH2=CHIR-99021 from 24-48 hr; BMP=BMP4. Computed P-values are indicated below the chart.
These findings were also confirmed using an O-neg hiPSC line (D5) expanded in agitated microcarrier cultures (FIG. 6). […] In summary, from the Design of experiment analysis, it was established that a BMP4 dose of 10 to 50 ng/ml, Activin A dose of 25 to 50 ng/ml and exposure of CHIR for 24 hours at a dose of 6 to 12 μM would be efficient for the generation of KDR+ cells.
Design of experiments (DoE) using a resolution IV Fractional Factorial Design was performed using the MODDE software (Sartorius Stedim Biotech, Germany) to evaluate initial BMP4, Activin A and CHIR-99021, doses and duration of exposure for their effects on the following response factors: induction of KDR+ cells 4 days post mesoderm induction or total hematopoietic precursors generated 2 weeks post differentiation. […]

[5] = system: hES-3-MC aggregates (agitation culture); experiment: DoE multifactorial mesoderm induction: % KDR+ cells by flow cytometry; format: cell-based, human; details: BMP4 10 to 50 ng/ml, Activin A 0-80 ng/ml, CHIR exposure 0 to 24 hours, 4 days post initiation of differentiation
Experimental: as §2
Design of experiments (DoE) using a resolution IV Fractional Factorial Design was performed using the MODDE software (Sartorius Stedim Biotech, Germany) to evaluate initial BMP4, Activin A and CHIR-99021, doses and duration of exposure for their effects on the following response factors: induction of KDR+ cells 4 days post mesoderm induction or total hematopoietic precursor cells generated 2 weeks post differentiation.
as §3, with “0.5. […]” for “0.5.”

Nc1nc(NCCNc2ncc(-n3ccnc3)c(-c3ccc(Cl)cc3Cl)n2)ccc1[N+](=O)[O-] [CHIR98014]
T-bra expression ([1]; 1 μM): higher T-bra expression
viability of X13 iPSCs on microcarriers [2]: significantly reduced viability

Cn1cc(C2=C(c3ccc(Cl)cc3Cl)C(=O)NC2=O)c2ccccc21 [SB-216763]
T-bra expression ([1]; 5 μM): higher T-bra expression

B1: Activin A: dimeric protein complex comprising two beta-A subunits (protein, UniProt P08476 311-426, looked up)
Inhibin beta A chain: GLECDGKVNICCKKQFFVSFKDIGWNDWIIAPSGYHANYCEGECPSHIAGTSGSSLSFHSTVINHYRMRGHSPFANLKSCCVPTKLRPMSMLYYDDGQNIIKKDIQNMIVEECGCS
modifications: Inhibin beta A chain homodimer
notes: dimeric protein complex comprising two beta-A subunits
effect of factor on hematopoietic precursor generation (DoE) [3]: did not significantly alter
effect of factor on KDR+ cells (DoE) [4]: significant factors for increased KDR+ cells
effect of factor on percent of KDR+ cells (DoE) [5]: did not significantly alter
